{
  "source": "patent US20110124614A1",
  "about": "“Methods And Compositions For The Treatment of Autoimmune Disorders” (priority 2008, published 2011)",
  "key": {"[1]": {"tested_on": "EAE in heterozygous (GPR30^+/−) female mice", "conditions": "mouse, in vivo"}, "[2]": {"tested_on": "PD-1 expression in CD4^+FoxP3^+ or CD4^+FoxP3^− T cells", "experiment": "PD-1 expression in CD4+FoxP3+/FoxP3- T cells by flow cytometry, E2-treated WT vs knockout mice (Example V)", "format": "in vivo, mouse", "protocol": "Age matched WT C57BL/6 from the animal service at National Cancer Institute (Frederick, Md.), GPR30KO prepared as in Example 1, or PDD-KO mice (Dr. […] Splenocytes or lymph node cells from GPR30KO mice were obtained at the end of the clinical experiment in FIG. 1A and stained for FoxP3 and PD-1, as well as cellular markers for T cells and antigen presenting cells (APC). For membrane staining, 1 million cells were stained at 4° C. in the dark with appropriate Ab dilutions in staining buffer (PBS containing 0.5% BSA and 0.02% sodium azide), Intracellular staining for FoxP3 was performed following the protocol recommended by eBioscience (San Diego, Calif.). Briefly, 4 million cells were surface stained following standard procedures. After washing, the cells were fixed overnight and washed twice with 0.5 ml of permeabilization buffer. […] Flow cytometry data were collected on LSRII and FACSCalibur flow cytometers (BD Bioscience, Franklin Lakes, N.J.), and analyzed using FlowJo software (Tree Star, Ashland, Oreg.). […] The expression levels of PD-1 were analyzed by gating on CD4^+FoxP3^+ or CD4^+FoxP3^− T cells from WT or GPR30 mice. The bar charts in FIG. 5A show the average mean fluorescence intensity (MFI) of Pd-1 in CD4^+FoxP3^+ or CD4^+FoxP3^− from all mice in each group. […]"}, "[3]": {"tested_on": "cytokine secretion by splenocytes of WT immunized mice", "experiment": "Cytokine secretion of mMog-35-55 stimulated splenocytes, Luminex, WT mice", "format": "in vivo, mouse", "conditions": "48 h supernatants", "protocol": "PD-1KO (Dr. […] One week after implantation experimental autoimmune encephalomyelitis (EAE) was induced. Splenocytes were harvested from […] cell proliferation and cytokine secretion in 48 h supernatants. (*P<0.05, or **P<0.01 compared to placebo). Lymph node and spleen cells were cultured at 4×10^6 cells/well in a 24 well flat-bottom culture plate in stimulation medium (RPMI 1640, 1% sodium pyruvate, 1% L-glutamine, 0.4% 2-β-ME, 10% FBS) with 25 μg/ml mMog-35-55 peptide for 48H. Supernatants were then harvested and stored at -80° C. until tested for cytokines. Culture supernatants were assessed for cytokine levels using a Luminex Bio-Plex mouse cytokine assay kit (BioRad, Hercules, Calif.) following the manufacturer's instructions. The following cytokines were determined in a single assay in three separate experiments: IL-1βIFN-γ, TNF-α, IL-2, IL-4, IL-5. IL-6, IL-12, IL-13, and IL-17. […] This cytokine profile was drastically altered in G-1 treated PD-1Ko mice. The decrease of Il-17 and increase of Il-6, Il-10 and IFN-γ production were abolished, whereas the reduction in IL-2 and Il-4 remained. Thus PD-1 was required for […] downregulation of IL-17 but not Il-2 and Il-4, and upregulation of IL-6, Il10 and IFN-γ."}},
  "note": "“And” between values parts separate entries of the source, which are not always exact repeats. Equal values may be shown once.",
  "data": [
    {"smiles": "C[C@]12CC[C@@H]3c4ccc(O)cc4CC[C@H]3[C@@H]1CC[C@@H]2O", "note": "[E2, 17β estradiol]", "values": [
      {"measurement": "Daily", "setting": "[1]", "result": "2.6 ± 0.8"},
      {"measurement": "Incidence", "setting": "[1]", "result": "4/7 and 5/10"},
      {"measurement": "Mortality", "setting": "[1]", "result": "0/7 and 0/10"},
      {"measurement": "Onset", "setting": "[1]", "result": "20.0 ± 1.0"},
      {"measurement": "clinical EAE (in words)", "setting": "[1]", "result": "delayed onset and were only partially protected from EAE"},
      {"measurement": "PD-1 expression in non-regulatory CD4^+FoxP3^− T cells", "setting": "[2]; WT or PD-1KO mice (so in the source)", "result": "did not induce a significant shift"},
      {"measurement": "E2 induced upregulation of PD-1 expression in CD4+FoxP3+ cells", "setting": "[2]; splenocytes from PD-1KO mice (so in the source), FIG. 5A", "result": "abolished"}
    ]},
    {"smiles": "CC(=O)c1ccc2c(c1)C1C=CCC1C(c1cc3c(cc1Br)OCO3)N2", "note": "(centres unmarked) [G-1]", "values": [
      {"measurement": "secretion of IL-17", "setting": "[3]; G-1 1.8 mg/40 day pellet, WT, 25 μg/ml mMog-35-55", "result": "significantly reduced"},
      {"measurement": "production of IFN-γ", "setting": "[3]; G-1 treated WT", "result": "increased"},
      {"measurement": "production of IL-1β", "setting": "[3]; G-1 treated WT", "result": "did not significantly change"},
      {"measurement": "production of IL-5", "setting": "[3]; G-1 treated WT", "result": "did not significantly change"},
      {"measurement": "production of Il-4", "setting": "[3]; G-1 treated WT", "result": "suppressed"},
      {"measurement": "production of Il-6", "setting": "[3]; G-1 treated WT", "result": "increased"},
      {"measurement": "production of Il-12", "setting": "[3]; G-1 treated WT", "result": "did not significantly change"},
      {"measurement": "production of TNF-α", "setting": "[3]; G-1 treated WT", "result": "did not significantly change"},
      {"measurement": "secretion of IL-2", "setting": "[3]; G-1 treated WT", "result": "significantly reduced"},
      {"measurement": "secretion of IL-10", "setting": "[3]; G-1 treated WT", "result": "increased"}
    ]}
  ]
}
